Read-outs that look alike come from different tables or passages of the source.
Experiments:
[1] = target: IDH1 wt/IDH1 R132H heterodimer (Homo sapiens (Human), UniProt O75874, R132H); assay: In vitro assay for IDH1m R132H inhibitors, IDH1 wt/IDH1 R132H heterodimer, NADPH depletion (diaphorase/resazurin); format: biochemical
In short: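 Purified IDH1wt-his/IDH1R132H-flag heterodimer (sf9 co-expression) pre-incubated 1 hr at room temperature with compound and NADPH before α-KG addition. Remaining NADPH read by diaphorase/resazurin conversion to fluorescent resorufin, 5 min at 25° C. Compounds diluted 1:50 from DMSO; IC50 determined.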

[2] = target: IDH1-R132H homodimer enzyme (Homo sapiens (Human), UniProt O75874, R132H); assay: In vitro assay IDH1-R132H homodimer, NADPH depletion assay with NADPH/NADP preincubation; format: biochemical; settings: 5 μM NADPH and 37.5 μM NADP
In short: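 Conversion of alpha-ketoglutarate to 2-hydroxyglutarate tracked by NADPH depletion. Reaction started with 5 mM alpha-ketoglutarate plus NADPH substrate mix (50 μl total), 60 min at room temperature. Leftover NADPH quantified via diaphorase/resazurin fluorescence.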

[3] = target: IDH1-R132C homodimer enzyme (Homo sapiens (Human), UniProt O75874, R132C); assay: In vitro assay IDH1-R132C homodimer, NADPH depletion assay with NADPH/NADP preincubation; format: biochemical; settings: 5 uM NADPH and 28.75 uM NADP, read-out: IDH R132C NADPH/NADP IC50
Description: The following describes the experimental procedures that can be used to obtain data on columns 3 and 5 of Table 5.
A test compound is prepared as 10 mM stock in DMSO and diluted to 50× final concentration in DMSO, for a 50 μl reaction mixture. IDH enzyme activity converting alpha-ketoglutarate to 2-hydroxyglutaric acid is measured using a NADPH depletion assay. In the assay the remaining cofactor is measured at the end of the reaction with the addition of a catalytic excess of diaphorase and resazurin, to generate a fluorescent signal in proportion to the amount of NADPH remaining. […] The reaction is started with the addition of 10 μl of Substrate Mix ([…], 5 mM alpha-ketoglutarate, in Assay Buffer) and the mixture is incubated for 60 minutes at room temperature.
The concentration of alpha-ketoglutarate in the Substrate Buffer is 1 mM.

[4] = target: IDH2 R140Q (Homo sapiens (Human), UniProt P48735, R140Q); assay: In vitro assay for IDH2m R140Q inhibitors, cofactor depletion assay; format: biochemical; settings: IDH2 R140Q enzyme
In short: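 Remaining cofactor measured fluorimetrically: diaphorase/resazurin Stop Mix […], halting the reaction. Before that, mutant enzyme and compound sat 1 h at RT, then substrate mix (4 μM NADPH, 1.6 mM α-KG) was added for 16 h at RT.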

[5] = test system: U87MG pLVX-IDH2 R140Q-neo cells; assay: U87MG pLVX-IDH2 R140Q-neo cell based assay, 2-HG by LC-MS; settings: Homo sapiens, U-87 MG
[6] = test system: Neurosphere cells (TS603); assay: Cellular assay for IDH1m R132H inhibitors, 2-HG by LC-MS in neurosphere cells (TS603); format: cell-based; settings: 2-HG in media at 48 hours
In short: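 TS603 neurosphere cells in NeuroCult medium were dosed with compound (0.25% DMSO final) at 37 C, 5% CO2. After 48 hours, medium 2-HG was measured by LC-MS. At 72 hours, viability was read by CellTiter-Glo luminescence.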

[7] = IDH1 wt/R132H heterodimer, NADPH/NADP, not saturated, read-out: IDH1 wt/R132H NADPH/NADP IC50 not saturated
[8] = IDH1 wt/IDH1 R132H heterodimer, 300 μM NADP (saturated), read-out: IDH1 wt/R132H NADPH/NADP IC50 saturated

Sequence of IDH1 wt/IDH1 R132H heterodimer (O75874 whole entry R132H): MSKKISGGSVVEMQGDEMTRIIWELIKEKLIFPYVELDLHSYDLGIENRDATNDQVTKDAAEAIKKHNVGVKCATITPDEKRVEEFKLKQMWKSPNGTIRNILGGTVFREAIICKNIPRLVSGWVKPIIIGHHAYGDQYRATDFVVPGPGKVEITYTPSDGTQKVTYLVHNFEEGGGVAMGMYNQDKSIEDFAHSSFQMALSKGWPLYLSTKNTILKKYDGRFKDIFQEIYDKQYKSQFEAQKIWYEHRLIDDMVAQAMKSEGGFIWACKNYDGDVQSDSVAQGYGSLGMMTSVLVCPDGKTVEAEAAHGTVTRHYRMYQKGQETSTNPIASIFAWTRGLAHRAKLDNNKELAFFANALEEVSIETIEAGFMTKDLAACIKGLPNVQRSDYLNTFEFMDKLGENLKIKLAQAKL
Sequence of IDH1 wt/IDH1 R132H heterodimer (O75874 whole entry, stated change not applied): as the sequence (O75874 whole entry R132H) above, with H132R counted along it
Sequence of IDH1-R132H homodimer enzyme (O75874 whole entry R132H): as the sequence (O75874 whole entry R132H) above
Sequence of IDH1-R132C homodimer enzyme (O75874 whole entry R132C): as the sequence (O75874 whole entry R132H) above, with H132C counted along it
Sequence of IDH2 R140Q (P48735 40-452 R140Q): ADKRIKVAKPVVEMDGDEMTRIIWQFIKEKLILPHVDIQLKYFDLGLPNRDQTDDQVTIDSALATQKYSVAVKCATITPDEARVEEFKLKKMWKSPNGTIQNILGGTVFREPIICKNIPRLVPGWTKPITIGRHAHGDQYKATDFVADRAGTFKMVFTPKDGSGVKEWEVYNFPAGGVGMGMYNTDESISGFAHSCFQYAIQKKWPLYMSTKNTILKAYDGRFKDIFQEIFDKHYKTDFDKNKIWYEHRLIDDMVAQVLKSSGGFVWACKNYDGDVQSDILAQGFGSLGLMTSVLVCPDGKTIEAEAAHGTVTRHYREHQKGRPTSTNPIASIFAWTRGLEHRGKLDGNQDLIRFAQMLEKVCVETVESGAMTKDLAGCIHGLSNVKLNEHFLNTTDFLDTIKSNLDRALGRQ

SMILES	IC50 [1, 7]	IC50 [2]	IC50 [3]	IC50 [4]	IC50 [5]	IC50 [6]	IC50 [1, 8]
FC1(F)CC[C@H](Nc2nc(Nc3ccnc(C(F)(F)F)c3)nc(-c3cccc(C(F)(F)F)n3)n2)C1 [Compound 158]	< 50 nM	50 to 100 nM	100 to 1000 nM	< 50 nM	< 50 nM	< 50 nM	–
FC1(F)CC(Nc2nc(Nc3ccnc(C(F)(F)F)c3)nc(-c3cccc(C(F)(F)F)n3)n2)C1 [Compound 190]	< 50 nM	100 to 1000 nM	> 1000 nM	< 50 nM	< 50 nM	< 50 nM	–
N#CC1(c2cc(Nc3nc(N[C@@H]4CCC(F)(F)C4)nc(-n4ccc(C(F)(F)F)n4)n3)ccn2)CC1 [Compound 350]	–	< 50 nM	50 to 100 nM	< 50 nM	< 50 nM	< 50 nM	< 50 nM
C[C@@H](Nc1nc(Nc2ccnc(C(F)(F)F)c2)nc(-n2ccc(C(F)(F)F)n2)n1)C(F)(F)F [Compound 400]	–	100 to 1000 nM	100 to 1000 nM	< 50 nM	< 50 nM	< 50 nM	< 50 nM

Continued, values first:

IC50 [1, 7]	IC50 [2]	IC50 [3]	IC50 [4]	IC50 [5]	IC50 [6]	IC50 [1, 8]	SMILES
< 50 nM	< 50 nM	50 to 100 nM	< 50 nM	< 50 nM	< 50 nM	–	N#CC1(c2cc(Nc3nc(N[C@H]4CCC(F)(F)C4)nc(-n4ccc(C(F)(F)F)n4)n3)ccn2)CC1 [Compound 174]
–	50 to 100 nM	100 to 1000 nM	< 50 nM	< 50 nM	< 50 nM	< 50 nM	FC1(F)CC[C@H](Nc2nc(Nc3ccnc(C(F)(F)F)c3)nc(-n3ccc(C(F)(F)F)n3)n2)C1 [Compound 393]
–	< 50 nM	< 50 nM	< 50 nM	< 50 nM	< 50 nM	< 50 nM	FC1(F)CC[C@@H](Nc2nc(N[C@@H]3CCC(F)(F)C3)nc(-c3cncc(C(F)(F)F)n3)n2)C1 [Compound 410]
